Patent US20140366219A1, “Increasing Soybean Defense Against Pests” (priority 2011, published 2014)

What was measured:
GmSAMT1 [1] = molecular target: T1, GmSAMT1 (Glycine max, UniProt B5A7G5); assay: Radiochemical SAMT activity assay, substrate specificity of recombinant GmSAMT1; assay type: biochemical, soybean; settings: all substrates at 1 mM, activity with salicylic acid set at 100%, average of three measurements
T1 sequence (B5A7G5 1-370): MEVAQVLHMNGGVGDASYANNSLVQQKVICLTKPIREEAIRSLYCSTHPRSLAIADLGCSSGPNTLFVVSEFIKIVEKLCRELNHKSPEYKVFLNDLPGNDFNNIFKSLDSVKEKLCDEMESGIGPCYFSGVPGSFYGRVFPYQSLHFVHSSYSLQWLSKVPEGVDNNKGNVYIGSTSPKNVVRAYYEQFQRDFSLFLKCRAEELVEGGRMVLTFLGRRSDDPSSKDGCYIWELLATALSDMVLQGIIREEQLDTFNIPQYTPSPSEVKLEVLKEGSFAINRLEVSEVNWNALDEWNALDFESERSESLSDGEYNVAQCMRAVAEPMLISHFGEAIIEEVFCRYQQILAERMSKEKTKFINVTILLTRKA
Method: (§1) A 50 μl volume containing 50 mM Tris-HCl, pH 7.5, 1 mM SA, and 3 μM ^14C-SAM with a specific activity of 51.4 mCi/mmol (Perkin-Elmer, Boston, Mass.) was used. The assay was initiated by addition of SAM, maintained at 25° C. for 30 min, and stopped by the addition of ethyl acetate (150 μl). After phase separation by 1 min centrifugation at 14,000 g, the upper organic phase was counted using a liquid scintillation counter (Beckman Coulter, Fullerton, Calif.). The radiation counts in the organic phase indicated the amount of synthesized MeSA. Substrate specificity assay was also performed for recombinant GmSAMT1, with a range of substrates including SA, benzoic acid, anthranilic acid, 3-hydroxybenzoic acid, 4-hydroxybenzoic acid, nicotinic acid, p-coumaric acid, caffeic acid, cinnamic acid, vanallic acid, jasmonic acid (JA), gibberellic acid, indole-3-acetic acid, and 2,4-dichlorophenoxyacetic acid. The activity with SA was set at 100%. Three independent assays were performed for each compound.

GmSAMT1 [2] = molecular target: T1, GmSAMT1; assay: Effects of metal ions on activity of GmSAMT1; assay type: biochemical, soybean; settings: chloride salts at 5 mM final concentration; control without metal ion set at 1.0
Method: as §1
Appropriate enzyme concentrations and incubation time were determined in time course assays to make sure that the reaction velocity was linear during the assay period. Lineweaver-Burk plots yielded apparent Km values. To determine the Km for SA, concentrations of SA were independently varied from 2 to 150 μM, while SAM was held constant at 200 μM. Assays were conducted at 25° C. for 30 min, as described in SAMT activity assay. The optimal pH for GmSAMT1 was assayed from pH 6.0 to pH 9.0, and optimal reaction of temperature was assayed ranging from 0° C. to 60° C. Effects of metal ions on activity of GmSAMT1 were assayed with a range of metal ions, including K^+, Cu^2+, Zn^2+, Fe^2+, Fe^3+, Mn^2+, Ca^2+, Na^+, NH4^+, and Mg^2+, in the form of chloride salts at 5 mM final concentrations.

SMILES	Relative activity of GmSAMT1 with substrate (GmSAMT1 [1]) [%]	effect of metal ion on GmSAMT1 activity compared with control (GmSAMT1 [2])	other results
O=C(O)COc1ccc(Cl)cc1Cl [2,4-Dichlorophenoxyacetic acid, 2,4-dichlorophenoxyacetic acid]	0	–	–
O=C(O)c1cccc(O)c1 [3-Hydroxybenzoic acid, 3-hydroxybenzoic acid]	1.8	–	–
O=C(O)c1ccc(O)cc1 [4-Hydroxybenzoic acid, 4-hydroxybenzoic acid]	0	–	–
Nc1ccccc1C(=O)O [Anthranilic acid, anthranilic acid]	9.3	–	–
O=C(O)c1ccccc1 [Benzoic acid, benzoic acid]	16.9	–	–
[Ca+2].[Cl-].[Cl-] [Ca^2+]	–	moderately inhibited	–
O=C(O)/C=C/c1ccc(O)c(O)c1 [Caffeic acid, caffeic acid]	0	–	–
O=C(O)C=Cc1ccccc1 [Cinnamic acid, cinnamic acid]	0	–	–
[Cl][Cu][Cl] [Cu^2+]	–	no activity	–
[Cl][Fe][Cl] [Fe^2+]	–	no activity	–
C=C1C[C@]23C[C@@]1(O)CC[C@H]2[C@@]12C=C[C@H](O)[C@@](C)(C(=O)O1)[C@H]2[C@@H]3C(=O)O [Gibberellic acid, gibberellic acid]	0	–	Relative activity of GmSAMT1 with substrate (GmSAMT1 [1]; listed as gibberellic acid): no activity was detected
O=C(O)Cc1c[nH]c2ccccc12 [Indole-3-acetic acid, indole-3-acetic acid]	0	–	Relative activity of GmSAMT1 with substrate (GmSAMT1 [1]; listed as indole-3-acetic acid): no activity was detected
CC/C=C\C[C@H]1C(=O)CC[C@@H]1CC(=O)O [Jasmonic acid, jasmonic acid]	0	–	Relative activity of GmSAMT1 with substrate (GmSAMT1 [1]; listed as JA): no activity was detected
[Cl-].[K+] [K]	–	double activity	–
[Cl-].[Cl-].[Mg+2] [Mg^2+]	–	minimal effect	–
[Cl][Mn][Cl] [Mn^2+]	–	moderately inhibited	–
Cl.N [NH4^+]	–	minimal effect	–
[Cl-].[Na+] [Na^+]	–	minimal effect	–
O=C(O)c1cccnc1 [Nicotinic acid, nicotinic acid]	0	–	–
O=C(O)c1ccccc1O [Salicylic acid, salicylic acid]	100	–	–
COc1cc(C(=O)O)ccc1O [Vanallic acid, vanallic acid]	0	–	–
[Cl-].[Cl-].[Zn+2] [Zn^2+]	–	no activity	–
O=C(O)/C=C/c1ccc(O)cc1 [p-Coumaric acid, p-coumaric acid]	0	–	–
